Measurements reported in patent US20160346291A1, “COMPOSITIONS AND THERAPEUTIC METHODS FOR ACCELERATED PLAQUE REGRESSION” (Resverlogix Corp, priority 2013, published 2016).

Tested on: ApoA-I mRNA
Experiment: ApoA-I mRNA quantitation in HepG2 cells (real-time PCR)
Type: cell-based
Design: key: Active: An active compound is one that causes a >15% increase in ApoA-I mRNA at a concentration less than or equal to 100 uM
Settings: concentration less than or equal to 100 uM, fold induction relative to DMSO control
Description: At time of harvesting, the spent media was removed from the HepG2 cells and immediately placed on ice (for immediate use) or at −80° C. (for future use) in ApoA-I and albumin ELISAs. The cells remaining in the plate wells were rinsed in 200 μL PBS. PBS was carefully removed to avoid removing any loosely attached cells.
Once the PBS was removed, 85 μL cell lysis solution was added to the cells in each well and incubated for 5-10 min at room temperature, to allow for complete cell lysis and detachment. mRNA was then prepared using the “mRNA Catcher PLUS plate” from Invitrogen, according to the protocol supplied. After the last wash, as much wash buffer as possible was aspirated without allowing the wells to dry. Elution Buffer (E3, 80 μL) was then added to each well. mRNA was then eluted by incubating the mRNA Catcher PLUS plate with Elution Buffer for 5 min at 68° C. and then immediately placing the plate on ice.
The eluted mRNA was isolated and then used in a one-step real-time […]-PCR reaction, using components of the Ultra Sense Kit together with Applied Biosystems primer-probe mixes. Real-time PCR data was analyzed, using the Ct values, to determine the fold induction of each unknown sample, relative to the control (that is, relative to the control for each independent DMSO concentration).
The following compounds of Formula I were evaluated in this assay. An active compound is one that causes a >15% increase in ApoA-I mRNA at a concentration less than or equal to 100 uM.

Compound	Effect on ApoA-I mRNA levels
COc1ccc(NC(=O)NCCOc2c(C)cc(-c3nc4cc(OC)cc(OC)c4c(=O)[nH]3)cc2C)cc1 [1-(2-(4-(5,7-dimethoxy-4-oxo-3,4-dihydroquinazolin-2-yl)-2,6-dimethylphenoxy)ethyl)-3-(4-methoxyphenyl)urea]	Active
CNC(=O)NCCOc1c(C)cc(-c2nc3cc(OC)cc(OC)c3c(=O)[nH]2)cc1C [1-(2-(4-(5,7-dimethoxy-4-oxo-3,4-dihydroquinazolin-2-yl)-2,6-dimethylphenoxy)ethyl)-3-methylurea]	Active
COc1cc(OC)c2c(=O)[nH]c(-c3cc(C)c(OCCNC(=O)Nc4ccccc4)c(C)c3)nc2c1 [1-(2-(4-(5,7-dimethoxy-4-oxo-3,4-dihydroquinazolin-2-yl)-2,6-dimethylphenoxy)ethyl)-3-phenylurea]	Active
COc1cc(OC)c2c(=O)[nH]c(-c3cc(C)c(OC)c(C)c3)cc2n1 [2,4-dimethoxy-7-(4-methoxy-3,5-dimethylphenyl)-1,6-naphthyridin-5(6H)-one]	Active
COc1cc(OC)c2c(=O)[nH]c(-c3ccc4c(c3)OCCO4)nc2c1 [2-(2,3-dihydrobenzo[b][1,4]dioxin-6-yl)-5,7-dimethoxyquinazolin-4(3H)-one]	Active
COc1cc2nc(-c3ccc4c(c3)OCCO4)[nH]c(=O)c2cc1OC [2-(2,3-dihydrobenzo[b][1,4]dioxin-6-yl)-6,7-dimethoxyquinazolin-4(3H)-one]	Active
O=c1[nH]c(-c2ccc3c(c2)OCCO3)nc2ccccc12 [2-(2,3-dihydrobenzo[b][1,4]dioxin-6-yl)quinazolin-4(3H)-one]	Active
COc1cc(OC)c2c(=O)[nH]c(-c3cc(C)c(OCCN4C(=O)c5ccccc5C4=O)c(C)c3)nc2c1 [2-(2-(4-(5,7-dimethoxy-4-oxo-3,4-dihydroquinazolin-2-yl)-2,6-dimethylphenoxy)ethyl)isoindoline-1,3-dione]	Inactive
COc1cc(OC)c2c(=O)[nH]c(-c3cccnc3Oc3ccc(Cl)cc3)nc2c1 [2-(2-(4-chlorophenoxy)pyridin-3-yl)-5,7-dimethoxyquinazolin-4(3H)-one]	Inactive
COc1cc(OC)c2c(=O)[nH]c(-c3cc(C)nc(Cl)c3)nc2c1 [2-(2-chloro-6-methylpyridin-4-yl)-5,7-dimethoxyquinazolin-4(3H)-one]	Active
COc1cc(OC)c2c(=O)[nH]c(-c3ccccc3Cl)nc2c1 [2-(2-chlorophenyl)-5,7-dimethoxyquinazolin-4(3H)-one]	Active
COc1cc(OC)c2c(=O)[nH]c(-c3cc(C(C)(C)C)c(O)c(C(C)(C)C)c3)nc2c1 [2-(3,5-di-tert-butyl-4-hydroxyphenyl)-5,7-dimethoxyquinazolin-4(3H)-one]	Active
COc1cc(OC)cc(-c2nc3cc(OC)cc(OC)c3c(=O)[nH]2)c1 [2-(3,5-dimethoxyphenyl)-5,7-dimethoxyquinazolin-4(3H)-one]	Active
COc1cc(OC)c2c(=O)[nH]c(-c3cc(C)c(OCCN4CCCC4)c(C)c3)nc2c1 [2-(3,5-dimethyl-4-(2-(pyrrolidin-1-yl)ethoxy)phenyl)-5,7-dimethoxyquinazolin-4(3H)-one]	Active
COc1cc(OC)c2c(=O)[nH]c(-c3cc(C)c(OCCN4CCOCC4)c(C)c3)nc2c1 [2-(3,5-dimethyl-4-(2-morpholinoethoxy)phenyl)-5,7-dimethoxyquinazolin-4(3H)-one]	Active
Cc1cc(-c2nc3ccccc3c(=O)[nH]2)cc(C)c1OCCN1CCOCC1 [2-(3,5-dimethyl-4-(2-morpholinoethoxy)phenyl)quinazolin-4(3H)-one]	Active
COc1cc(OC)c2c(=O)[nH]c(-c3cc(C)cc(C)c3)nc2c1 [2-(3,5-dimethylphenyl)-5,7-dimethoxyquinazolin-4(3H)-one]	Active
COc1cc(OC)c2c(=O)[nH]c(-c3ccc(OCCO)c(Cl)c3)nc2c1 [2-(3-chloro-4-(2-hydroxyethoxy)phenyl)-5,7-dimethoxyquinazolin-4(3H)-one]	Active
COc1cc(OC)c2c(=O)[nH]c(-c3ccc(O)c(Cl)c3)nc2c1 [2-(3-chloro-4-hydroxyphenyl)-5,7-dimethoxyquinazolin-4(3H)-one]	Active

Compound	Effect on ApoA-I mRNA levels
COc1cc(OC)c2c(=O)[nH]c(-c3cc(C)c(OCCOCc4ccccc4)c(C)c3)nc2n1 [2-(4-(2-(benzyloxy)ethoxy)-3,5-dimethylphenyl)-5,7-dimethoxypyrido[2,3-d]pyrimidin-4(3H)-one]	Inactive
COc1cc(OC)c2c(=O)[nH]c(-c3cc(C)c(OCCN)c(C)c3)nc2c1 [2-(4-(2-aminoethoxy)-3,5-dimethylphenyl)-5,7-dimethoxyquinazolin-4(3H)-one]	Active
COc1cc(OC)c2c(=O)[nH]c(-c3cc(C)c(OCCO)c(C)c3)nc2n1 [2-(4-(2-hydroxyethoxy)-3,5-dimethylphenyl)-5,7-dimethoxypyrido[2,3-d]pyrimidin-4(3H)-one]	Active
COc1cc(OC)c2c(=O)[nH]c(-c3cc(C)c(OCCO)c(C)c3)nc2c1 [2-(4-(2-hydroxyethoxy)-3,5-dimethylphenyl)-5,7-dimethoxyquinazolin-4(3H)-one]	Active
Cc1cc(C)c2c(=O)[nH]c(-c3cc(C)c(OCCO)c(C)c3)nc2c1 [2-(4-(2-hydroxyethoxy)-3,5-dimethylphenyl)-5,7-dimethylquinazolin-4(3H)-one]	Active
COc1cccc2nc(-c3cc(C)c(OCCO)c(C)c3)[nH]c(=O)c12 [2-(4-(2-hydroxyethoxy)-3,5-dimethylphenyl)-5-methoxyquinazolin-4(3H)-one]	Active
COc1cc2nc(-c3cc(C)c(OCCO)c(C)c3)[nH]c(=O)c2cc1OC [2-(4-(2-hydroxyethoxy)-3,5-dimethylphenyl)-6,7-dimethoxyquinazolin-4(3H)-one]	Active
COc1ccc2nc(-c3cc(C)c(OCCO)c(C)c3)[nH]c(=O)c2c1 [2-(4-(2-hydroxyethoxy)-3,5-dimethylphenyl)-6-methoxyquinazolin-4(3H)-one]	Active
Cc1cc(-c2nc3ccccc3c(=O)[nH]2)cc(C)c1OCCO [2-(4-(2-hydroxyethoxy)-3,5-dimethylphenyl)quinazolin-4(3H)-one]	Active
COc1cc(OC)c2c(=O)[nH]c(-c3ccc(OCCO)c(OC)c3)nc2c1 [2-(4-(2-hydroxyethoxy)-3-methoxyphenyl)-5,7-dimethoxyquinazolin-4(3H)-one]	Active
COc1cc(OC)c2c(=O)[nH]c(-c3ccc(OCCO)c(C)c3)nc2c1 [2-(4-(2-hydroxyethoxy)-3-methylphenyl)-5,7-dimethoxyquinazolin-4(3H)-one]	Active
NC(=O)COc1ccc(-c2nc3ccccc3c(=O)[nH]2)cc1 [2-(4-(4-oxo-3,4-dihydroquinazolin-2-yl)phenoxy)acetamide]	Active
O=C(O)COc1ccc(-c2nc3ccccc3c(=O)[nH]2)cc1 [2-(4-(4-oxo-3,4-dihydroquinazolin-2-yl)phenoxy)acetic acid]	Active
CNC(=O)OCCOc1c(C)cc(-c2nc3cc(OC)cc(OC)c3c(=O)[nH]2)cc1C [2-(4-(5,7-Dimethoxy-4-oxo-3,4-dihydroquinazolin-2-yl)-2,6-dimethyl-phenoxy)ethyl methylcarbamate]	Active
CCCNC(=O)OCCOc1c(C)cc(-c2nc3cc(OC)cc(OC)c3c(=O)[nH]2)cc1C [2-(4-(5,7-Dimethoxy-4-oxo-3,4-dihydroquinazolin-2-yl)-2,6-dimethyl-phenoxy)ethyl propylcarbamate]	Active
COc1cc(OC)c2c(=O)[nH]c(-c3cc(C)c(OCC(=O)O)c(C)c3)nc2c1 [2-(4-(5,7-dimethoxy-4-oxo-3,4-dihydroquinazolin-2-yl)-2,6-dimethylphenoxy)acetic acid]	Active
COc1cc(OC)c2c(=O)[nH]c(-c3cc(C)c(OCCOC(=O)NC4CCCCC4)c(C)c3)nc2c1 [2-(4-(5,7-dimethoxy-4-oxo-3,4-dihydroquinazolin-2-yl)-2,6-dimethylphenoxy)ethyl cyclohexylcarbamate]	Active
COc1cc(OC)c2c(=O)[nH]c(-c3ccc(OCC(=O)O)c(OC)c3)nc2c1 [2-(4-(5,7-dimethoxy-4-oxo-3,4-dihydroquinazolin-2-yl)-2-methoxyphenoxy)acetic acid]	Active
